Data from patent US20210330611A1, “THERAPY FOR NEUROLOGICAL DISEASES/DISORDERS” (priority 2020, published 2021).
Like-named read-outs stand apart in the source and are kept apart here.

Key:
[1] = test system: fibrin- and LPS-induced microglia activation; experiment: cells; assay type: cell-based, rat; conditions: for inhibition at 10 µM: Rattus norvegicus
[2] = test system: LPS-induced microglia activation; experiment: Image-based assay of LPS-induced microglia activation (HTS and dose response); assay type: cell-based, rat; conditions: Rattus norvegicus, Microglia; for inhibition at 10 µM: read-out: LPS % inhibition
primary rat microglia [3] = conditions: rat
primary rat microglia [4] = conditions: rat; remark: listed apart in the source
in vitro [5] = conditions: rat, Cell Toxicity IC50 (uM) [cFib assay]
in vitro [6] = conditions: rat
[7] = test system: fibrin-induced microglia activation; experiment: Image-based assay of fibrin-induced microglia activation (HTS and dose response); assay type: cell-based, rat; conditions: for IC50 / inhibition at 10 µM: Rattus norvegicus, Microglia; for inhibition at 10 µM: read-out: Fibrin % inhibition
[8] = Microglia, read-out: Cherry-picked Hit (Suppl. Table 7)
[9] = read-out: LPS IC50 (uM) (Suppl. Table 7)
[10] = read-out: Fibrin IC50 (uM) (Suppl. Table 7)
[11] = HTS of 1907 compounds, quadrant by fibrin and LPS inhibition
[12] = Microglia, HTS hit classification, read-out: Hit
[13] = hit classification in microglia HTS, read-out: Cherry-picked Hit (Suppl. Table 7)
[14] = quadrant by fibrin and LPS inhibition in HTS of 1907 compounds
[15] = 48 h, Table 1, dose response 0.001-20 μM, triplicates, primary rat microglia, 48 h, read-out: LPS IC50
[16] = 48 h, primary microglia HTS, LPS stimulation, increased cell size (>800 μm^2) as marker of activation
[17] = LPS-induced microglia activation, dose response, read-out: LPS IC50 (uM) (Suppl. Table 7)
[18] = dose response, LPS-induced microglia activation, read-out: LPS IC50
[19] = 48 h, Table 1, dose response 0.001-20 μM, triplicates, primary rat microglia, 48 h, read-out: Fibrin IC50
[20] = dose response, fibrin-induced microglia activation, read-out: Fibrin IC50
[21] = fibrin-induced microglia activation, dose response, read-out: Fibrin IC50 (uM) (Suppl. Table 7)
[22] = primary microglia HTS, fibrin stimulation, increased cell size (>800 μm^2) as marker of activation
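Throughout, for Fibrin % cell toxicity: share of dead cells sized under 150 µm2 at 10 µM in fibrin-stimulated microglia HTS.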

## CCCSc1ccc2nc(NC(=O)OC)[nH]c2c1 [Albendazole, reference compound]
[1]
  Quadrant (FIG. 5b): Q3
[1]; [8]
  inhibition at 10 µM: > 50%
[1]; Microglia, read-out: Hit
  inhibition at 10 µM: > 50%
[2]; 48 h
  inhibition at 10 µM: 16%
[2]; 48 h, read-out: LPS IC50
  IC50: 6 µM
[2]; read-out: LPS IC50 (uM)
  IC50: 6 µM
[2]; [9]
  IC50: 6 µM
Primary rat microglia [3]
  Fibrin % cell toxicity: 1%
Primary rat microglia [4]
  LPS % cell toxicity: 1%
In vitro [5]
  IC50: > 20 µM
In vitro [6]
  IC50: > 20 µM
[7]
  Fibrin Selectivity: 2
  Fibrin Selectivity (LOG10): 0.22
  inhibition at 10 µM: 64%
[7]; 48 h, read-out: Fibrin IC50
  IC50: 4 µM
[7]; read-out: Fibrin IC50 (uM)
  IC50: 4 µM
[7]; [10]
  IC50: 4 µM

## Clc1ccc2c(c1)C(N1CCNCC1)=Nc1ccccc1O2 [Amoxapine, reference compound]
[1]
  Quadrant (FIG. 5b): Q3
[1]; [8]
  inhibition at 10 µM: > 50%
[1]; Microglia, read-out: Hit
  inhibition at 10 µM: > 50%
[2]; 48 h
  inhibition at 10 µM: 43%
Primary rat microglia [3]
  Fibrin % cell toxicity: 0%
Primary rat microglia [4]
  LPS % cell toxicity: 1%
In vitro [5]
  IC50: > 20 µM
In vitro [6]
  IC50: > 20 µM
[7]
  inhibition at 10 µM: 58%

## C=C(CC)C(=O)c1ccc(OCC(=O)O)c(Cl)c1Cl [Ethacrynic acid, reference compound]
[1]; [11]
  Quadrant (FIG. 5b): Q3
[1]; [12]
  inhibition at 10 µM: > 50%
[1]; [13]
  inhibition at 10 µM: > 50%
[1]; Table 1, screen at 10 μM
  Quadrant (FIG. 5b): Q3
[1]; [14]
  Quadrant (FIG. 5b): Q3
[2]; [15]
  IC50: > 20 µM
[2]; [16]
  inhibition at 10 µM: 17%
[2]; [17]
  IC50: > 20 µM
[2]; [18]
  IC50: > 20 µM
Primary rat microglia [3]
  Fibrin % cell toxicity: 2%
Primary rat microglia [4]
  LPS % cell toxicity: 1%
In vitro [5]; cFib assay
  IC50: > 20 µM
In vitro [6]
  IC50: > 20 µM
[7]; [19]
  IC50: > 20 µM
[7]; [20]
  IC50: > 20 µM
[7]; [21]
  IC50: > 20 µM
[7]; [22]
  inhibition at 10 µM: 57%

## CCN(CC)CCNc1ccc(CO)c2sc3ccccc3c(=O)c12 [Hycanthone, reference compound]
[1]; [11]
  Quadrant (FIG. 5b): Q2
[1]; [12]
  inhibition at 10 µM: > 50%
[1]; [13]
  inhibition at 10 µM: > 50%
[1]; Table 1, screen at 10 μM
  Quadrant (FIG. 5b): Q2
[1]; Table 7, fib = fibrin, LPS, tox = toxicity
  Activity: fib/LPS
[1]; [14]
  Quadrant (FIG. 5b): Q2
[2]; [15]
  IC50: 1 µM
[2]; [16]
  inhibition at 10 µM: 71%
[2]; [17]
  IC50: 1 µM
[2]; Table 7, read-out: LPS_IC50
  IC50: 0.354 µM
[2]; [18]
  IC50: 1 µM
Primary rat microglia [3]
  Fibrin % cell toxicity: 2%
Primary rat microglia [4]
  LPS % cell toxicity: 2%
In vitro [5]
  IC50: > 20 µM
In vitro [6]
  IC50: 11 µM
[7]; [19]
  IC50: 1 µM
[7]; Table 7, read-out: fib_IC50
  IC50: 0.619 µM
[7]; [20]
  IC50: 1 µM
[7]; [21]
  IC50: 1 µM
[7]; [22]
  inhibition at 10 µM: 103%

## Cc1cccc(C(=O)O)c1O [Hydroxytoluic acid, reference compound]
[1]; [11]
  Quadrant (FIG. 5b): Q3
[1]; [12]
  inhibition at 10 µM: > 50%
[1]; [13]
  inhibition at 10 µM: > 50%
[1]; Table 1, screen at 10 μM
  Quadrant (FIG. 5b): Q3
[1]; [14]
  Quadrant (FIG. 5b): Q3
[2]; [15]
  IC50: > 20 µM
[2]; [16]
  inhibition at 10 µM: 33%
[2]; [17]
  IC50: > 20 µM
[2]; [18]
  IC50: > 20 µM
Primary rat microglia [3]
  Fibrin % cell toxicity: 1%
Primary rat microglia [4]
  LPS % cell toxicity: 0%
In vitro [5]
  IC50: > 20 µM
In vitro [6]
  IC50: > 20 µM
[7]; [19]
  IC50: 20 µM
[7]; [20]
  IC50: 20 µM
[7]; [21]
  IC50: 20 µM
[7]; [22]
  inhibition at 10 µM: 69%

## C[C@@H](O)[C@H]1C(=O)N2C(C(=O)O)=C(SCCN=CN)C[C@H]12 [Imipenem, reference compound]
[1]
  Quadrant (FIG. 5b): Q3
[1]; [8]
  inhibition at 10 µM: > 50%
[1]; Microglia, read-out: Hit
  inhibition at 10 µM: > 50%
[2]; 48 h, read-out: LPS IC50
  IC50: > 20 µM
[2]; read-out: LPS IC50 (uM)
  IC50: > 20 µM
[2]; [9]
  IC50: > 20 µM
Primary rat microglia [3]
  Fibrin % cell toxicity: 1%
Primary rat microglia [4]
  LPS % cell toxicity: 0%
In vitro [5]
  IC50: > 20 µM
In vitro [6]
  IC50: > 20 µM
[7]; 48 h, read-out: Fibrin IC50
  IC50: > 20 µM
[7]; read-out: Fibrin IC50 (uM)
  IC50: > 20 µM
[7]; [10]
  IC50: > 20 µM

## COC(=O)Nc1nc2ccc(C(=O)c3ccccc3)cc2[nH]1 [Mebendazole, reference compound]
[1]; [11]
  Quadrant (FIG. 5b): Q2
[1]; Microglia, Table 3, read-out: Cherry-picked Hit (Suppl. Table 7)
  inhibition at 10 µM: > 50%
[1]; [12]
  inhibition at 10 µM: > 50%
[1]; Table 1, screen at 10 μM
  Quadrant (FIG. 5b): Q2
[1]; Table 3, screen at 10 μM
  Quadrant (FIG. 5b): Q2
[1]; [14]
  Quadrant (FIG. 5b): Q2
[2]; [15]
  IC50: 6 µM
[2]; [16]
  inhibition at 10 µM: 72%
[2]; [17]
  IC50: 6 µM
[2]; Table 3, read-out: LPS IC50 (uM) (Suppl. Table 7)
  IC50: 6 µM
[2]; [18]
  IC50: 6 µM
Primary rat microglia [3]
  Fibrin % cell toxicity: 1%
Primary rat microglia [4]
  LPS % cell toxicity: 2%
In vitro [5]
  IC50: > 20 µM
In vitro [6]
  IC50: > 20 µM
[7]
  Fibrin Selectivity: 31
  Fibrin Selectivity (LOG10): 1.49
[7]; [19]
  IC50: 0.2 µM
[7]; Table 3, read-out: Fibrin IC50 (uM) (Suppl. Table 7)
  IC50: 0.2 µM
[7]; [20]
  IC50: 0.2 µM
[7]; [21]
  IC50: 0.2 µM
[7]; [22]
  inhibition at 10 µM: 57%
